From patent US10968227B2, “Isoquinoline ether compounds as mGluR4 allosteric potentiators, compositions, and methods of treating neurological dysfunction” (Vanderbilt University, priority 2016, dated 2021)
Converted amounts (≈) assume the structure as drawn.

Experiments:
[1] = Rat brain fraction unbound; assay type: in vitro ADME; conditions: read-out: Rat Fu Brain
Brain-plasma partition = assay type: in vivo; conditions: rat; for unbound brain-to-plasma partition coefficient (Kp,uu): unbound brain-plasma ratio, read-out: Brain-Plasma Kp,ω
[2] = Human plasma fraction unbound; assay type: in vitro ADME; conditions: read-out: Human Fu Plasma
[3] = Rat plasma fraction unbound; assay type: in vitro ADME; conditions: read-out: Rat Fu Plasma
Kinetic solubility = assay type: physicochemical; conditions: kinetic from dmso stock
[4] = Human intrinsic and hepatic clearance; assay type: in vitro ADME
[5] = Rat intrinsic and hepatic clearance; assay type: in vitro ADME
1A2 = 1A2 (Homo sapiens (Human), UniProt P05177); assay: CYP 1A2 inhibition; assay type: in vitro ADME
2C9 = 2C9 (Homo sapiens (Human), UniProt P11712); assay: CYP 2C9 inhibition; assay type: in vitro ADME
3A4 = 3A4 (Homo sapiens (Human), UniProt P08684); assay: CYP 3A4 inhibition; assay type: in vitro ADME
2D6 = 2D6 (Homo sapiens (Human), UniProt P10635); assay: CYP 2D6 inhibition; assay type: in vitro ADME
2D6, sequence (P10635 whole entry): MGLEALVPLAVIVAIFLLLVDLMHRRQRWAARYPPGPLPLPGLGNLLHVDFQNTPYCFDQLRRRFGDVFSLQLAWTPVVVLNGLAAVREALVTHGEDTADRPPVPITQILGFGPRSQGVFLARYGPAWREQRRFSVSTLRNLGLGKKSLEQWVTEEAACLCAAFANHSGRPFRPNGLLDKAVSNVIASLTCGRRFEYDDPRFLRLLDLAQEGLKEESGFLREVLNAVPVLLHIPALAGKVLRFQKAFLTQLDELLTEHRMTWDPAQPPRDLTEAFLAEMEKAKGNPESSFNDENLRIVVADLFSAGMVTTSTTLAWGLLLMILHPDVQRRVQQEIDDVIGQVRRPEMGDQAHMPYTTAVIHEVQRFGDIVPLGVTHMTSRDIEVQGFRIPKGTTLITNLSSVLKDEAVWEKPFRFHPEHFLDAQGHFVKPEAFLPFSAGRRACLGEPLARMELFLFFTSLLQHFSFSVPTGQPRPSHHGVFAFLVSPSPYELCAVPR

3A4, sequence (P08684 whole entry): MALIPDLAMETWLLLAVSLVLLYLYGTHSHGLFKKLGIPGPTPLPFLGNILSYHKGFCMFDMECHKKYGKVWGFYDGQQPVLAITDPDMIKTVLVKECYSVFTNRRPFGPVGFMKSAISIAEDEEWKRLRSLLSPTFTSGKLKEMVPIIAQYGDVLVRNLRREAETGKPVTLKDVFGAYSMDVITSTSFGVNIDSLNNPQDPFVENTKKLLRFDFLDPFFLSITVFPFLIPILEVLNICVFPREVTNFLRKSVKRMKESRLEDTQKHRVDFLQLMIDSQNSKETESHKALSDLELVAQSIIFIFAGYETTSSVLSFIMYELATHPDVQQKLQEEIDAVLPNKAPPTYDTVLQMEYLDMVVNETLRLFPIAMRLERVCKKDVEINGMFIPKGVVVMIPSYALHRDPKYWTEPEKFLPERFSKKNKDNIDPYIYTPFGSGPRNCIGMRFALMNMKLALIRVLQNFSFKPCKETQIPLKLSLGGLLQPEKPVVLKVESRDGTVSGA
2C9, sequence (P11712 whole entry): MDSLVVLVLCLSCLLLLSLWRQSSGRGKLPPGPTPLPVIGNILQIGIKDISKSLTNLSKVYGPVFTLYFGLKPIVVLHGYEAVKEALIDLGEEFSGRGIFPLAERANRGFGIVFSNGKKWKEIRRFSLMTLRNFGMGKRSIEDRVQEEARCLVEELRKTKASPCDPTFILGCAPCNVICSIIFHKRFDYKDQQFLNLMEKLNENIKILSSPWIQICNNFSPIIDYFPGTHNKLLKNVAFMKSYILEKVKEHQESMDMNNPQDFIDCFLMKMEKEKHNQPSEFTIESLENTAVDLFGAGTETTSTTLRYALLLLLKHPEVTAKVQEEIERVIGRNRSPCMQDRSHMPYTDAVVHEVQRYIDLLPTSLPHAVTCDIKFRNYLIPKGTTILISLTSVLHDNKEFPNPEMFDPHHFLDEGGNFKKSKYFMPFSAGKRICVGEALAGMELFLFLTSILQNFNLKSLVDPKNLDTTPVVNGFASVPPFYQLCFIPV
1A2, sequence (P05177 whole entry): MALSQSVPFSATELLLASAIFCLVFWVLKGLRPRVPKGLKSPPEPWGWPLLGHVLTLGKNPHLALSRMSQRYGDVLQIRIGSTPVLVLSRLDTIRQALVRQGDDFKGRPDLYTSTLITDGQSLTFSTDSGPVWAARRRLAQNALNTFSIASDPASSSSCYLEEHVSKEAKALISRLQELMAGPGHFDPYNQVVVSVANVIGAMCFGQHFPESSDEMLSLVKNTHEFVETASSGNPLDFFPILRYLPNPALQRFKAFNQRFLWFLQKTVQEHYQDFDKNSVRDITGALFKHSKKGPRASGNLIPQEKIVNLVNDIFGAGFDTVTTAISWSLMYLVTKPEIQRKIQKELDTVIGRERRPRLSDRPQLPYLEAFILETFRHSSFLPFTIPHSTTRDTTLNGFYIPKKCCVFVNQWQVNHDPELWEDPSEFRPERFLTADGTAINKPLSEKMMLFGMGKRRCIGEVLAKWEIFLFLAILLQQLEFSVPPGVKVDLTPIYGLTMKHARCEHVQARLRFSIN

Compound	fraction unbound [1]	Kp (Brain-plasma partition)	unbound brain-to-plasma partition coefficient (Kp,uu) (Brain-plasma partition)	fraction unbound [2]	fraction unbound [3]	solubility kinetic (Kinetic solubility)	CLint scaled [4]	Human CLhep [4]	CLint scaled [5]	Rat CLhep [5]	IC50 (1A2)	IC50 (2C9)	IC50 (3A4)	IC50 (2D6)
CO[C@H](C)COc1nccc2cc(Nc3n[nH]c4ncccc34)ccc12 [Compound 78]	0.004	0.99	0.09	0.023	0.042									
Fc1cnc2c(Nc3ccc4c(OCC5COCCO5)nccc4c3)n[nH]c2c1 (stereo not shown) [Compound 100]						1.1 ± 0.6 µM (≈ 0.435 µg/mL)	46.1 mL/min/kg	14.4 mL/min/kg	156 mL/min/kg	48.3 mL/min/kg				
CO[C@H](C)COc1nccc2cc(Nc3n[nH]c4nccnc34)ccc12 [Compound 84]	0.008	1.11	0.33	0.019	0.027		75.3 mL/min/kg	16.4 mL/min/kg	145 mL/min/kg	47.2 mL/min/kg				
C[C@H]1OCC[C@H]1Oc1nccc2cc(Nc3n[nH]c4ncccc34)ccc12 [Compound 92]						0.9 ± 0.2 µM (≈ 0.325 µg/mL)	129 mL/min/kg	18.1 mL/min/kg	518 mL/min/kg	61.7 mL/min/kg				
c1cnc2c(Nc3ccc4c(OCC5CCOC5)nccc4c3)n[nH]c2c1 (stereo not shown) [Compound 71]	0.003	0.8	0.1	0.015	0.024		41.1 mL/min/kg	13.9 mL/min/kg	151 mL/min/kg	47.8 mL/min/kg	8.48 µM	4.59 µM	15.4 µM	19.7 µM
c1cnc2[nH]nc(Nc3ccc4c(OCC5CCOCC5)nccc4c3)c2c1 [Compound 77]	0.002	1.59	0.4	0.013	0.008									
c1cnc2[nH]nc(Nc3ccc4c(O[C@H]5CCOC5)nccc4c3)c2c1 [Compound 66]	0.006	0.87	0.11	0.019	0.047		37.9 mL/min/kg	13.5 mL/min/kg	210 mL/min/kg	52.5 mL/min/kg	> 30 µM	> 30 µM	> 30 µM	> 30 µM
COCCOc1nccc2cc(Nc3n[nH]c4ncc(F)cc34)ccc12 [Compound 96]						0.3 ± 0.2 µM (≈ 0.106 µg/mL)	37 mL/min/kg	13.4 mL/min/kg	327 mL/min/kg	57.7 mL/min/kg				
c1cnc2c(Nc3ccc4c(O[C@@H]5CCOC5)nccc4c3)n[nH]c2c1 [Compound 63]	0.005	1.27	0.18	0.018	0.036		57.8 mL/min/kg	15.4 mL/min/kg	181 mL/min/kg	50.5 mL/min/kg	3.96 µM	13.3 µM	22.3 µM	> 30 µM
c1cc2cc(Nc3n[nH]c4nccnc34)ccc2c(O[C@H]2CCOC2)n1 [Compound 59]						2.6 ± 1.6 µM (≈ 0.906 µg/mL)								
c1cnc2[nH]nc(Nc3ccc4c(OCC5CCCCO5)nccc4c3)c2c1 (stereo not shown) [Compound 76]	0.001	1.27	0.13	0.008	0.01									
Fc1cnc2[nH]nc(Nc3ccc4c(OC5CCOCC5)nccc4c3)c2c1 [Compound 99]						0.7 ± 0.2 µM (≈ 0.266 µg/mL)	36.8 mL/min/kg	13.4 mL/min/kg	227 mL/min/kg	53.5 mL/min/kg				
COCCOc1nccc2cc(Nc3n[nH]c4cc(F)cnc34)ccc12 [Compound 97]						1 ± 0.1 µM (≈ 0.353 µg/mL)	96.8 mL/min/kg	17.3 mL/min/kg	161 mL/min/kg	48.8 mL/min/kg				
c1cnc2[nH]nc(Nc3ccc4c(O[C@@H]5CCOC5)nccc4c3)c2c1 [Compound 65]	0.003	1.28	0.09	0.028	0.043									
COCCOc1nccc2cc(Nc3n[nH]c4ccccc34)ccc12 [Compound 98]						1.6 ± 0.2 µM (≈ 0.535 µg/mL)	30 mL/min/kg	12.4 mL/min/kg	216 mL/min/kg	52.9 mL/min/kg				
CCOCCOc1nccc2cc(Nc3n[nH]c4ncccc34)ccc12 [Compound 75]	0.004	1	0.13	0.021	0.031		71.8 mL/min/kg	16.2 mL/min/kg	456 mL/min/kg	60.7 mL/min/kg				
Fc1cnc2c(Nc3ccc4c(O[C@H]5CCOC5)nccc4c3)n[nH]c2c1 [Compound 95]						0.4 µM (≈ 0.146 µg/mL)	40.3 mL/min/kg	13.6 mL/min/kg	127 mL/min/kg	45.1 mL/min/kg				
C[C@H]1OCC[C@H]1Oc1nccc2cc(Nc3n[nH]c4cccnc34)ccc12 [Compound 91]						3.3 ± 0.2 µM (≈ 1.19 µg/mL)	109 mL/min/kg	17.6 mL/min/kg	377 mL/min/kg	59.0 mL/min/kg				
c1cnc2c(Nc3ccc4c(OCC5CCOCC5)nccc4c3)n[nH]c2c1 [Compound 68]	0.001	1.06	0.12	0.008	0.009									
CCOCCOc1nccc2cc(Nc3n[nH]c4cccnc34)ccc12 [Compound 69]	0.005	1.23	0.27	0.017	0.023	9.9 ± 2.7 µM (≈ 3.46 µg/mL)								
c1cnc2[nH]nc(Nc3ccc4c(OCC5CCOC5)nccc4c3)c2c1 (stereo not shown) [Compound 79]	0.002	1.5	0.16	0.018	0.019	< 0.4 µM								
c1cnc2c(Nc3ccc4c(OCCN5CCOCC5)nccc4c3)n[nH]c2c1 [Compound 93]						20.5 ± 2.1 µM (≈ 8 µg/mL)	136 mL/min/kg	18.2 mL/min/kg	718 mL/min/kg	63.8 mL/min/kg				
c1cnc2[nH]nc(Nc3ccc4c(OCCN5CCOCC5)nccc4c3)c2c1 [Compound 94]						15.2 ± 1.5 µM (≈ 5.93 µg/mL)	87.6 mL/min/kg	16.9 mL/min/kg	923 mL/min/kg	65.1 mL/min/kg				
c1cc2cc(Nc3n[nH]c4nccnc34)ccc2c(OCC2CCOCC2)n1 [Compound 82]	0.004	0.47	0.09	0.02	0.02	0.5 ± 0.2 µM (≈ 0.188 µg/mL)	67.6 mL/min/kg	15.4 mL/min/kg	154 mL/min/kg	48.1 mL/min/kg				
C[C@@H]1C[C@H](Oc2nccc3cc(Nc4n[nH]c5cccnc45)ccc23)CO1 [Compound 89]						2.7 ± 0.4 µM (≈ 0.976 µg/mL)	37.8 mL/min/kg	13.5 mL/min/kg	204 mL/min/kg	52.1 mL/min/kg				
